What all share (format): in vivo
Assay [1] relates to pigweed (Amaranthus retroflexus). As to the kind of experiment: Test A preemergence. To be noted: Amaranthus retroflexus, pre-emergence, 240 h; for pest or weed control at 125 g/ha: 125 g ai/ha, preemergence, 0 to 100 scale where 0 is no effect and 100 is complete control, read-out: Pigweed plant response rating; for pest or weed control at 500 g/ha: 500 g ai/ha, Preemergence, visual injury vs untreated controls after approximately 10 d, read-out: Pigweed plant response rating (0 to 100 scale where 0 is no effect and 100 is complete control).

In assay [2] the test system is barnyardgrass (Echinochloa crus-galli). As to the kind of experiment: Test B flooded paddy test. To be noted: Echinochloa crus-galli, Flood, 250 g ai/ha; scale of 0 to 100 where 0 is no effect and 100 is complete control; read-out: Barnyardgrass plant response rating. In a few lines: (§1)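 Percent control, visually estimated after 13–15 d in the greenhouse on a 0–100 basis, compares treated pots with untreated ones; compound was put into paddy water 3 cm above the soil when plants had two leaves.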

Assay [3] concerns ducksalad (Heteranthera limosa). Briefly: Test B flooded paddy test. Particulars: Heteranthera limosa, Flood, 250 g ai/ha; scale of 0 to 100 where 0 is no effect and 100 is complete control; read-out: Ducksalad plant response rating. In a few lines: as §1
Assay [4] deals with sedge, umbrella (small-flower umbrella sedge, Cyperus difformis). Briefly: Test B flooded paddy test. To be noted: Cyperus difformis, Flood, 250 g ai/ha; scale of 0 to 100 where 0 is no effect and 100 is complete control; read-out: Sedge, Umbrella plant response rating. An outline of the steps:
as §1

Assay [5] relates to rice (Oryra sativa). Briefly: Test B flooded paddy test. Particulars: Oryza sativa, Flood, 250 g ai/ha; scale of 0 to 100 where 0 is no effect and 100 is complete control; read-out: Rice plant response rating. An outline of the steps:
as §1

The test system of assay [6] is barnyardgrass (Echinochloa crus-galli). As to the kind of experiment: Test A postemergence. Particulars: Echinochloa crus-galli, post-emergence, 240 h, 125 g ai/ha, postemergence, visual injury rating after approximately 10 d; read-out: Barnyardgrass plant response rating (0 to 100 scale, 0 no effect, 100 complete control). In a few lines: (§2)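 Ratings of 0 (no effect) to 100 (complete control) come from visual comparison with untreated controls roughly 10 d after treatment. Test chemicals, formulated in a non-phytotoxic solvent mixture with surfactant, were applied either as a preemergence directed soil spray on seeded soil or postemergence to one- to two-leaf plants 2 to 10 cm tall.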

Assay [7] has as its system pigweed (Amaranthus retroflexus). Briefly: Test A postemergence. To be noted: Amaranthus retroflexus, post-emergence, 240 h, 125 g ai/ha, postemergence, visual injury rating after approximately 10 d; read-out: Pigweed plant response rating (0 to 100 scale, 0 no effect, 100 complete control). In a few lines: as §2
Assay [8] relates to ragweed (common ragweed, Ambrosia elatior). Briefly: Test A postemergence. To be noted: Ambrosia artemisiifolia, post-emergence, 240 h, 125 g ai/ha, postemergence, visual injury rating after approximately 10 d; read-out: Ragweed plant response rating (0 to 100 scale, 0 no effect, 100 complete control). An outline of the steps:
as §2

Assay [9] deals with corn (Zea mays). Briefly: Test A postemergence. To be noted: Zea mays, post-emergence, 240 h, 125 g ai/ha, postemergence, visual injury rating after approximately 10 d; read-out: Corn plant response rating (0 to 100 scale, 0 no effect, 100 complete control). An outline of the steps: as §2
Assay [10] deals with giant foxtail (Setaria faberii). As to the kind of experiment: Test A postemergence. Particulars: Setaria faberi, post-emergence, 240 h, 125 g ai/ha, postemergence, visual injury rating after approximately 10 d; read-out: Foxtail, Giant plant response rating (0 to 100 scale, 0 no effect, 100 complete control). In a few lines: as §2
Assay [11] has as its system blackgrass (Alopecurus myosuroides). As to the kind of experiment: Test A postemergence. To be noted: Alopecurus myosuroides, post-emergence, 240 h, 125 g ai/ha, postemergence, visual injury rating after approximately 10 d; read-out: Blackgrass plant response rating (0 to 100 scale, 0 no effect, 100 complete control). In a few lines: as §2
In assay [12] the test system is Galium (catchweed bedstraw, Galium aparine). Briefly: Test A postemergence. To be noted: Galium, post-emergence, 240 h, 125 g ai/ha, postemergence, visual injury rating after approximately 10 d; read-out: Galium plant response rating (0 to 100 scale, 0 no effect, 100 complete control). In a few lines:
as §2

The test system of assay [13] is ryegrass, Italian (Italian ryegrass, Lolium multiflorum). As to the kind of experiment: Test A postemergence. To be noted: Lolium multiflorum, post-emergence, 240 h, 125 g ai/ha, postemergence, visual injury rating after approximately 10 d; read-out: Ryegrass, Italian plant response rating (0 to 100 scale, 0 no effect, 100 complete control). An outline of the steps:
as §2

Assay [14] deals with wheat (Triticum aestivum). As to the kind of experiment: Test A postemergence. To be noted: Triticum aestivum, post-emergence, 240 h, 125 g ai/ha, postemergence, visual injury rating after approximately 10 d; read-out: Wheat plant response rating (0 to 100 scale, 0 no effect, 100 complete control). In a few lines:
as §2

For assay [15], the system named is Kochia (Kochia scoparia). Briefly: Test A postemergence. Particulars: Bassia scoparia, post-emergence, 240 h, 125 g ai/ha, postemergence, visual injury rating after approximately 10 d; read-out: Kochia plant response rating (0 to 100 scale, 0 no effect, 100 complete control). In a few lines:
as §2

Consider `CN1C[C@H](c2cc(F)c(C(F)(F)F)c(F)c2)[C@@H](C(=O)Nc2cccc(F)c2F)C1=O` [Compound 898], for which the pest or weed control at 125 g/ha came out at 60% in assay [1]; 80% in assay [6]; 40% in assay [7]; 0% in assay [8]; 80% in [10]; 50% in [11]. Further, the pest or weed control at 125 g/ha in [12] came out at 0%; in [13], 50%; in assay [15], 0%. In addition, the pest or weed control at 500 g/ha in assay [1] was 80%. The pest or weed control at 250 g/ha in assay [2] was found to be 55%; in [3], 70%; in assay [4], 0%; in assay [5], 0%. Further, the plant injury at 125 g/ha in assay [9] was 70%; in assay [14] it was 40%.

Consider `CN1C[C@H](c2cc(F)cc(F)c2)[C@@H](C(=O)Nc2ncc(C(F)(F)F)cc2F)C1=O` [Compound 868], for which the pest or weed control at 125 g/ha came out at 0% in assay [1]; 20% in assay [6]; 0% in assay [7]; 0% in assay [8]; 0% in assay [10]; 0% in [11]. Moreover, the pest or weed control at 125 g/ha in assay [12], in [13] and in assay [15] was 0% throughout. Also, the pest or weed control at 500 g/ha in assay [1] was 0%. The pest or weed control at 250 g/ha in assay [2], in assay [3], in [4] and in assay [5] was 0% in each case. The plant injury at 125 g/ha in assay [9] and in assay [14] was 0% in each case.
